Results as given in PubChem BioAssay (NCI).
Where “and” joins values, the source holds several entries; their conditions need not be identical. Equal entries are not always repeated.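 Cultured in 96-well plates, cells were exposed to test compound for 48 hours across five concentrations. The concentration for 50% growth inhibition is given as GI50. The concentration for full growth arrest is given as TGI.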

Legend:
Assay in all cases: NCI anticancer screen, dose series, 48 h
NCI-H226 lung = system: NCI-H226 lung
MDA-MB-231 breast = system: MDA-MB-231 breast
OVCAR-5 ovarian = system: OVCAR-5 ovarian
HCT-116 colon = system: HCT-116 colon
A498 renal = system: A498 renal
NCI-H460 lung = system: NCI-H460 lung
SNB-75 CNS = system: SNB-75 CNS
CCRF-CEM leukemia = system: CCRF-CEM leukemia
SK-MEL-28 melanoma = system: SK-MEL-28 melanoma
OVCAR-8 ovarian = system: OVCAR-8 ovarian

Compound	GI50 (NCI-H226 lung)	TGI (NCI-H226 lung)	GI50 (MDA-MB-231 breast)	TGI (MDA-MB-231 breast)	GI50 (OVCAR-5 ovarian)	TGI (OVCAR-5 ovarian)	GI50 (HCT-116 colon)	TGI (HCT-116 colon)	GI50 (A498 renal)	TGI (A498 renal)	GI50 (NCI-H460 lung)	TGI (NCI-H460 lung)	GI50 (SNB-75 CNS)	TGI (SNB-75 CNS)	GI50 (CCRF-CEM leukemia)	TGI (CCRF-CEM leukemia)	GI50 (SK-MEL-28 melanoma)	TGI (SK-MEL-28 melanoma)	GI50 (OVCAR-8 ovarian)	TGI (OVCAR-8 ovarian)
COc1cc(Nc2ncc(-c3ccccc3)o2)cc(OC)c1	> 12.5 µM	> 25 µM	> 25 µM	> 25 µM	> 25 µM	> 25 µM	> 25 µM	> 25 µM	5.57 µM	> 25 µM	> 20.4 µM	> 25 µM	3.19 µM	> 25 µM	> 25 µM	> 25 µM	> 25 µM	> 25 µM	> 25 µM	> 25 µM
CC1(C)CNc2cc(NC(=O)c3cccnc3NCc3ccncc3)ccc21	11 µM	46.1 µM	29.2 µM	> 100 µM	50.9 µM	> 100 µM	34.3 µM	> 100 µM	12.5 µM	> 79.7 µM	32.3 µM	> 100 µM	1.87 µM	> 100 µM	23.7 µM	> 100 µM	22.1 µM	> 100 µM	33.3 µM	> 100 µM
CNC(=O)c1c(NC(=O)c2ccc(C(C)(C)C)cc2)sc2c1CCC(=O)C2	0.558 µM	1.99 µM	0.3 µM	1.13 µM	0.341 µM	1.41 µM	0.0971 µM	1.4 µM	0.647 µM	3.62 µM	0.352 µM	1.47 µM	0.343 µM	1.44 µM	0.0886 µM	> 20.1 µM	0.506 µM	1.87 µM	0.292 µM	3.19 µM
COc1ccc2c(c1OC)CO[C@@H]2[C@H]1c2c(cc3c(c2OC)OCO3)CCN1S(=O)(=O)c1cn(C)cn1	0.462 µM	4.48 µM	4.49 µM	> 100 µM	4.22 µM	> 100 µM	0.494 µM	> 100 µM	0.588 µM	9.75 µM	2.87 µM	26.8 µM	1.6 µM	> 100 µM	0.944 µM	> 100 µM	5.4 µM	> 100 µM	3.24 µM	> 100 µM
CC1CC[P+](c2ccccc2)(c2ccccc2)c2c1ccc1ccccc21 (centres undefined)	8.48 µM	62.8 µM	8.98 µM	> 45 µM		> 100 µM		> 39.5 µM	35.1 µM	88.2 µM		10.1 µM		6.05 µM		42.1 µM	13 µM	> 73.4 µM		21.1 µM
COc1cc(/C=N/Nc2ncnc3c2cnn3-c2ccccc2)ccc1O	> 25 µM	> 25 µM	2.34 µM	> 25 µM	> 25 µM	> 25 µM	8.18 µM	> 25 µM	> 25 µM	> 25 µM	12.9 µM	> 25 µM	1.1 µM	> 7.39 µM	4.54 µM	> 25 µM	18.5 µM	> 25 µM	> 14.7 µM	> 25 µM
COc1ccc(CN2c3ccccc3Sc3ccccc32)c(C(F)(F)F)c1	10.4 µM	56.3 µM	3.05 µM	58.6 µM	9.75 µM	> 100 µM	0.419 µM	21.8 µM	0.372 µM	> 100 µM	0.456 µM	> 100 µM	0.241 µM	> 100 µM	0.454 µM	26.5 µM			2.22 µM	> 100 µM
CCOCCCn1c2c(c3c(O)cccc31)C(=O)c1ccccc1-2	24.1 µM	81.6 µM	12.8 µM	35.3 µM	17.8 µM	39.9 µM	16.6 µM	33.5 µM	21.7 µM	52.5 µM	21.6 µM	63.9 µM	20.5 µM	50.3 µM	25.1 µM	88.6 µM	22.5 µM	46.3 µM	31.1 µM	> 100 µM
COc1cccc(CC(C)=C(c2ccc(OCCN3CCCCC3)cc2)c2ccc(OCCN3CCCCC3)cc2)c1	2.33 µM	5.12 µM	1.92 µM	4.02 µM	2.02 µM	3.99 µM	2.25 µM	4.26 µM	1.75 µM	3.72 µM	1.96 µM	3.93 µM	1.77 µM	3.83 µM	1.71 µM	4.73 µM	2.12 µM	4.11 µM	2.3 µM	4.81 µM
CCN(Cc1ccccc1)C1CCN(Cc2cc(Br)ccc2O)CC1	> 100 µM	> 100 µM	31.6 µM	> 100 µM	> 100 µM	> 100 µM	23.2 µM	> 100 µM	9.29 µM	> 100 µM	58.2 µM	> 100 µM	27.5 µM	> 100 µM	39.3 µM	> 100 µM	22 µM	59.4 µM	76.6 µM	> 100 µM
COC(=O)[C@H](Cc1cnc[nH]1)NC(=O)[C@@H](NC(=O)Nc1cc(C(F)(F)F)cc(C(F)(F)F)c1)C(C)C	16.8 µM	36 µM	12.4 µM	25.3 µM	16.5 µM	31.1 µM	18.9 µM	40.7 µM	13 µM	27.3 µM	18.7 µM	37.3 µM	13.5 µM	27 µM	14.7 µM	35.6 µM	15.7 µM	29.2 µM	16.5 µM	31.6 µM
O=C(Nc1ccccc1)Nc1ccc2cc3ccc(NC(=O)Nc4ccccc4)cc3nc2c1	1.71 µM	4.15 µM	1.4 µM	2.8 µM	3.1 µM	> 100 µM	0.232 µM	0.615 µM	2.74 µM	8.87 µM	3.95 µM	> 100 µM	1.97 µM	3.73 µM	0.276 µM	0.828 µM	1.82 µM	3.22 µM	1.15 µM	2.78 µM
O=C(/C=C\c1ccc([N+](=O)[O-])cc1)c1ccccc(=O)c1O		6.7 µM		17.1 µM		9.92 µM		2.35 µM		9.59 µM		3.64 µM		4.75 µM		0.532 µM		3.75 µM		11.3 µM
COCc1c(-c2cc3cc(C)cc(OC)c3s2)c2c(N)ncnn2c1CN1CCNC(=O)C1	0.291 µM	5.41 µM	6.11 µM	61.4 µM	4.11 µM	77 µM	5.08 µM	44.4 µM	0.0102 µM	0.0803 µM	4.05 µM	> 100 µM	2.13 µM	17.8 µM	3.42 µM	53.8 µM	9.38 µM	70.3 µM	4.85 µM	> 100 µM
CC1=C(SCCC(=O)OC(C[Se]C2=C(C)C(=O)c3ccccc3C2=O)C(=O)NCCCCCC(=O)OCc2ccccc2)C(=O)c2ccccc2C1=O (centres undefined)	19.5 µM	51.3 µM	6.81 µM	22 µM	5.05 µM	18.7 µM	1.99 µM	4.6 µM	11.9 µM	> 100 µM	1.9 µM	4.54 µM	11.5 µM	23.8 µM	2.82 µM	> 100 µM	11.9 µM	24.7 µM	4.16 µM	15 µM
O=S(=O)(NNc1ccccc1)c1ccccc1		18.5 µM		17.5 µM		> 100 µM		29.4 µM		> 100 µM		21.2 µM		> 100 µM		50 µM		> 100 µM		> 100 µM
CCN(CC)CCCNc1cc(OC)cc2nc3cc(Cl)ccc3nc12	1.48 µM	3.76 µM	2.71 µM	11.7 µM	3.56 µM	16.3 µM	0.508 µM	3.63 µM	1.27 µM	2.7 µM	1.83 µM	10.3 µM	1.7 µM	4.35 µM	2.52 µM	11.1 µM	1.79 µM	3.21 µM	0.838 µM	10.2 µM
CC1C(C)N(C(=O)CCl)c2ccccc2N1C(=O)CCl (centres undefined)	1.11 µM	3.52 µM	1.18 µM	3.6 µM	0.896 µM	2.57 µM	0.185 µM	0.406 µM	1.59 µM	3.14 µM	1.74 µM	3.98 µM	1.36 µM	2.84 µM	0.15 µM	0.629 µM	0.838 µM	2.9 µM	0.55 µM	12.5 µM
CC(C)(C)c1ccc(Oc2ccc(N)cn2)cc1	44.5 µM	> 100 µM	31.7 µM	> 100 µM	> 100 µM	> 100 µM	47.5 µM	> 100 µM	11.7 µM	> 100 µM	72.3 µM	> 100 µM	10.9 µM	> 100 µM	1.06 µM	> 100 µM	75.9 µM	> 100 µM	75.6 µM	> 100 µM
Cc1ccc(/C=N/Nc2nc(Nc3ccccc3)nc(-n3nc(C)cc3C)n2)cc1	4.88 µM	37.7 µM	6.44 µM	> 100 µM	15.4 µM	> 100 µM	3.18 µM	11.7 µM	7.13 µM	92.4 µM	2.11 µM	8.91 µM	10.9 µM	> 100 µM	3.72 µM	> 100 µM	6.12 µM	> 100 µM	3.33 µM	11.5 µM
CC1=C2[C@@H](CC1)[C@]1(C)O[C@@](C(C)C)(C[C@H]1OC(=O)CO)[C@H]2OC(=O)C1CC1c1ccccc1 (some centres undefined)	16.2 µM	35.7 µM	15.5 µM	33.7 µM	20.3 µM	40.4 µM	17.7 µM	33.2 µM	0.24 µM	0.943 µM	14.5 µM	32.2 µM	13.7 µM	30.4 µM	16.2 µM	39.1 µM	16.8 µM	34.6 µM	12.9 µM	35.6 µM
CCOC(=O)c1cc2c(cc1Cl)SC(=Nc1ccccc1)N(S(=O)(=O)c1ccc(Cl)cc1)S2(=O)=O	6.03 µM	28.2 µM	13.2 µM	33.7 µM	19.4 µM	36.8 µM	6.32 µM	21.9 µM	11.4 µM	24.6 µM	18.8 µM	46.7 µM	38.2 µM	> 100 µM	2.57 µM	7.4 µM	21.6 µM	74.6 µM	22.1 µM	59.6 µM
C=C/C=C/[C@@H](O)CC(=C)C[C@H]1OC2[C@H](C)[C@@H](OC(=O)C[C@H]3C[C@H](OC(C)=O)C[C@@]4(C[C@@](C)(O)C[C@H](CC(=C)[C@@H](C)[C@H](OC(C)=O)[C@H](C)C(=O)C[C@@H]5C[C@H](OC)CC6(C[C@@H](O)C[C@H](/C=C\CCC[C@H]7O[C@](O)(C=C[C@H]7C)[C@H]2O)O6)O5)O4)O3)[C@@H]1O	0.000503 µM and 0.0025 µM		0.000409 µM and 0.0025 µM	0.00362 µM	0.00293 µM and 0.0025 µM	> 25 µM		0.0112 µM	0.000388 µM and 0.0025 µM	0.00544 µM	0.000798 µM and 0.0025 µM	0.00529 µM	> 25 µM	> 25 µM	0.0025 µM	> 25 µM		> 25 µM	0.00053 µM and 0.0025 µM	
COc1ccc(C/C(=C(\C)c2ccc(OCCN3CCCC3)cc2)c2ccc(OCCN3CCCC3)cc2)cc1	2.54 µM	7.64 µM	1.73 µM	3.37 µM	1.8 µM	3.72 µM			2.5 µM	8.04 µM	2.08 µM	4.17 µM	1.59 µM	3.22 µM	1.8 µM	4.51 µM	1.82 µM	3.3 µM	2.05 µM	4.38 µM
COc1cc(/C=C/C(=O)/C=C/c2ccc(-n3ccnc3C)cc2)ccc1O	2.37 µM	6.4 µM	2.87 µM	9.03 µM	14.9 µM	39.3 µM			10.4 µM	23.7 µM	15.4 µM	43.4 µM	9.61 µM	> 100 µM	4.07 µM	> 100 µM	2.18 µM	5 µM	3.52 µM	> 100 µM
